Data taken from patent US12583845B2, “Compositions and methods for treating diseases, disorders and conditions involving trinucleotide repeats” (The Research Foundation for the State University of New York, priority 2021, dated 2026).
“Also recorded” adds a separate entry of the source.

Key:
Dmpk^480/480 mice = assay: RT-PCR splicing rescue in Dmpk480/480 DM1 mouse model (choroid plexus/CNS); format: in vivo; conditions: for RT-PCR splicing rescue of Lnf2 exon22: choroid plexus of Dmpk^480/480 mice (N=2), 10 mg/kg, FIG. 8B
From the text: (§1) New MPCs, including HM33, are being systematically designed to study bioavailability. […] Systematic modification of current MPCs (See e.g., FIGS. 5A and 5B) is used to assess the contribution of each change to bioavailability with the goal of improving BBB and other organ penetration.
(§2) Short-term Studies: To select excellent candidates for long-term studies, cohorts (N=6) of one-month old age- and gender-matched animals from both muscle (homozygous HSALR/LR or heterozygous HSAXLR) and brain (Dmpk480/480) mouse models are treated. Both transgenic (N=6) and matching wild-type (N=6) mice are treated every two days at 3 different concentrations of lead MPCs (2, 5 and 10 mg/kg) or PBS via IP injection for a period of 1 week. The 48-hour injection schedule and starting concentrations are based upon previous treatment regimens and preliminary pharmacokinetic analysis. However, the schedule or treatments is subject to change depending upon the candidate compound's history and performance in e.g., Steps 1 and 2 of FIG. 1. After 1 week of treatment, mice are tested for health (body weight, body condition score) then sacrificed, and muscle tissue (tibialis anterior, vastus lateralis, liver, kidney & brain) harvested and tested for in vivo changes in molecular (foci, splicing and MBNL1 colocalization) and histopathological features (central nuclei, HSA-based models only). To assess molecular features, frozen muscle samples are tested for: mis-splicing changes (RT-PCR and RNAseq); transgene and endogenous DMPK expression (qRT-PCR); off-target effects (RNAseq); RNA foci (FISH); MBNL1 colocalization (FISH/IF); CLCN1 staining (IF); and central nuclei (H&E). Frozen muscle and brain samples from each mouse model are analyzed by UPLC-MS/MS to determine preliminary bioavailability, which is correlated with molecular activity (muscle only for HSA-based and brain only for DMPK480/480) to assess therapeutic potential.

DM1 fibroblasts = assay: RT-PCR analysis of INSR exon 11 mis-splicing in DM1 fibroblasts; format: cell-based, human; conditions: FIG. 2B
Method: (§3) FIG. 2A presents the chemical structures of furamidine, HM19A and HM19B. […] (ANOVA two-tailed test, *p<0.05 and **p<0.01).
(§4) DM splicing panel analysis: MPCs are evaluated starting with HM19A &19B in control and DM cells using a 5-point dose-response treatment. Data from the characterization of multiple DM1 & DM2 fibroblast supports this splicing panel and the utility of fibroblasts as a screening tool (See FIGS. 7A-E).

DM2 fibroblasts = assay: RT-PCR analysis of INSR exon 11 mis-splicing in DM2 fibroblasts; format: cell-based, human; conditions: FIG. 2B
Method: as §3, §4

DM1 fibroblast = assay: MTT cell viability in DM1 fibroblast; format: cell-based, human; conditions: for MTT cell viability: DM1 fibroblast, low micromolar concentrations, FIG. 2C
Method: as §3
Effects on cellular health: To monitor the overall health of cells, treated vs. untreated control and DM patient fibroblast and myoblast/myotube lines are tested across a dose range where one observes a reduction in toxic CUG/CCUG RNA levels and rescue of mis-splicing. Cell health is monitored using the lactate dehydrogenase (LDH) and methylthiazol tetrazolium (MTT) assays, to measure membrane integrity (cell death) and metabolic activity (cell viability), along with monitoring rates of cell growth. Mutagenicity is assessed using the Ames test. Alterations in cell death, cell viability and rates of cell growth and mutagenicity is combined with data from control cells to determine the overall effect on cell health due to MPC treatment. As shown in FIGS. 2A-2E, HM19B rescues splicing at more than 50-fold lower concentrations than at concentrations where cell death is starting to be observed.

HSA^LR/LR mice = assay: RT-PCR splicing rescue in HSALR/LR DM1 mouse model (muscle); format: in vivo; conditions: for rescue of mis-splicing (DM1 splicing) in HSALR mice: HSALR mouse model; for RT-PCR splicing rescue of Atp2a1 exon 22: TA muscle of HSA^LR/LR mice (N=2), 7 days, FIG. 8A
From the text: as §1
as §2, with “The” for “Short-term Studies: To select excellent candidates for long-term studies, cohorts (N=6) of one-month old age- and gender-matched animals from both muscle (homozygous HSALR/LR or heterozygous HSAXLR) and brain (Dmpk480/480) mouse models are treated. Both transgenic (N=6) and matching wild-type (N=6) mice are treated every two days at 3 different concentrations of lead MPCs (2, 5 and 10 mg/kg) or PBS via IP injection for a period of 1 week. The”

DM1 and DM2 cell lines = assay: Splicing rescue and toxicity in DM1 and DM2 patient-derived cell lines; format: cell-based, human; conditions: DM fibroblasts and myotubes; nanomolar range where stated
From the text: Referring to FIG. 1, Step 2, a process flow includes characterizing the best-in-class MPCs for in cellulo activity and therapeutic potential. Rationale and preliminary data: Because of the multisystemic nature of pathogenesis in myotonic dystrophy, it is desirable to evaluate the therapeutic potential of excellent MPCs in multiple DM cellular models as well as in control models in order to best prioritize compounds for in vivo testing. The cellular activity of MPC lead panel is systematically evaluated starting with HM19A & HM19B in 2 independent DM1 and DM2 patient-derived fibroblast lines and 2 independent DM1 myoblast/myotube differentiation models along with age and gender-matched control cell lines. Potential blood brain barrier penetrance is evaluated using the established MDR1-MDCK monolayer assay. This aim will facilitate the informed selection of the top performing compounds in cellular studies for testing in animal models of DM (See e.g., FIG. 1, step 3).
as §4

DM1 myoblasts = assay: RT-PCR analysis of mis-splicing events in DM1 myoblasts; format: cell-based, human; conditions: nanomolar concentrations, FIG. 2D
From the text: as §3

CUG repeat RNA = assay: Circular dichroism (CD) spectroscopy with CUG repeat RNA; format: binding
patient-derived myotubes = assay: DM1 splicing rescue in patient-derived myotubes; format: cell-based, human

N=C(N)c1ccc(-c2ccc(-c3ccc(C(=N)N)cn3)o2)nc1 [DB829, reference compound]
RT-PCR splicing rescue of Lnf2 exon22 (Dmpk^480/480 mice): splicing rescue

c1ccc2[nH]c(-c3ccc(-c4ccc(-c5ccc(-c6nc7ccccc7[nH]6)cc5)o4)cc3)nc2c1 [HM19A]
rescue of INSR exon 11 mis-splicing (DM1 fibroblasts): strong rescue | rescue of INSR exon 11 mis-splicing (DM2 fibroblasts): strong rescue | MTT cell viability (DM1 fibroblast): no effect on viability | rescue of mis-splicing (DM1 splicing) in HSALR mice (HSA^LR/LR mice): significantly rescuing mis-splicing | RT-PCR splicing rescue of Atp2a1 exon 22 (HSA^LR/LR mice): splicing rescue | splicing rescue in patient-derived cell lines (DM1 and DM2 cell lines): significantly rescuing mis-splicing

CN1CCN(c2ccc3nc(-c4ccc(-c5ccc6c(c5)oc5cc(-c7ccc(-c8nc9ccc(N%10CCN(C)CC%10)cc9[nH]8)cc7)ccc56)cc4)[nH]c3c2)CC1 [HM19B]
rescue of INSR exon 11 mis-splicing (DM1 fibroblasts): strong rescue | rescue of INSR exon 11 mis-splicing (DM2 fibroblasts): strong rescue | MTT cell viability (DM1 fibroblast): no effect on viability | concentration margin between splicing rescue and concentrations where cell death is starting to be observed (DM1 fibroblast; FIGS. 2A-2E): more than 50 fold | rescue of MBNL1 exon 5 mis-splicing (DM1 myoblasts): promising rescue | rescue of MBNL2 exon 5 mis-splicing (DM1 myoblasts): promising rescue | rescue of mis-splicing (DM1 splicing) in HSALR mice (HSA^LR/LR mice): significantly rescuing mis-splicing | RT-PCR splicing rescue of Atp2a1 exon 22 (HSA^LR/LR mice): splicing rescue | rescue in the CNS compared to DB829 (Dmpk^480/480 mice; Dmpk^480/480 mice, FIG. 8C): reduced rescue | RT-PCR splicing rescue of Lnf2 exon22 (Dmpk^480/480 mice): splicing rescue | rescue in the Dmpk480/480 mice (Dmpk^480/480 mice; early preliminary data): capable of rescue | interaction with CUG repeat RNA by CD spectroscopy (CUG repeat RNA): surface interaction between ligand and substrate | splicing rescue in patient-derived cell lines (DM1 and DM2 cell lines): splicing rescue at the nanomolar concentration; also recorded: significantly rescuing mis-splicing

COc1cc2c(c(OC)c1OC)-c1ccc(OC)c(=O)cc1[C@@H](NC(C)=O)CC2 [colchicine]
rescue of DM1 splicing (patient-derived myotubes): rescue DM1 splicing
